“Also recorded” adds a separate entry of the source. Active and inactive are the calls of the source. The rule behind the calls is not given here.

The test system of the data set is CCRIS mutagenicity, Ames/micronucleus/aberration tests. Put plainly: CCRIS mutagenicity studies.
[1] abbreviates: Test System: AMES SALMONELLA TYPHIMURIUM, Strain/Indicator: TA100, Metabolic Activation: NONE, Method: STANDARD PLATE.
Where [2] appears, read: Test System: AMES SALMONELLA TYPHIMURIUM, Strain/Indicator: TA1535, Metabolic Activation: NONE, Method: STANDARD PLATE.
[3] abbreviates: Test System: AMES SALMONELLA TYPHIMURIUM, Strain/Indicator: TA98, Metabolic Activation: NONE, Method: PREINCUBATION
Setting [4] is: Test System: AMES SALMONELLA TYPHIMURIUM, Strain/Indicator: TA100, Metabolic Activation: NONE, Method: PREINCUBATION

On to `C1=C/CCC2OC2CC/C=C/CC/1` (configuration not stated), for which the mutagenic call reads like this: under setting [1], “inactive; negative”; (Test System: AMES SALMONELLA TYPHIMURIUM, Strain/Indicator: TA100, Metabolic Activation: RAT, LIVER, S-9, AROCLOR 1254, Method: STANDARD PLATE) “inactive; negative”; under setting [2], “inactive; negative”; (Test System: AMES SALMONELLA TYPHIMURIUM, Strain/Indicator: TA1535, Metabolic Activation: RAT, LIVER, S-9, AROCLOR 1254, Method: STANDARD PLATE) “inactive; negative”.
As to `O=C(Cl)c1ccc(C(=O)Cl)cc1`, the mutagenic call reads like this: under setting [3], “active; positive”; (Test System: AMES SALMONELLA TYPHIMURIUM, Strain/Indicator: TA98, Metabolic Activation: RAT LIVER S-9, PCB, Method: PREINCUBATION) “active; positive”; under setting [4], “active; positive”; (Test System: AMES SALMONELLA TYPHIMURIUM, Strain/Indicator: TA100, Metabolic Activation: RAT LIVER S-9, PCB, Method: PREINCUBATION) “active; positive”; (Test System: AMES SALMONELLA TYPHIMURIUM, Strain/Indicator: TA104, Metabolic Activation: NONE, Method: PREINCUBATION) “active; positive”; (Test System: AMES SALMONELLA TYPHIMURIUM, Strain/Indicator: TA104, Metabolic Activation: RAT LIVER S-9, PCB, Method: PREINCUBATION) “active; positive”. In addition, the mutagenic call is, setting by setting: (Test System: E.COLI, Strain/Indicator: WP2 UVRA, Metabolic Activation: NONE, Method: PREINCUBATION) “active; positive”; (Test System: E.COLI, Strain/Indicator: WP2 UVRA, Metabolic Activation: RAT LIVER S-9, PCB, Method: PREINCUBATION) “active; positive”.
Regarding `CC(CO)[N+](=O)[O-]` (configuration not stated), the mutagenic call under setting [3] is “inactive; negative”; the mutagenic call (Test System: AMES SALMONELLA TYPHIMURIUM, Strain/Indicator: TA98, Metabolic Activation: RAT, LIVER, S-9, AROCLOR, Method: PREINCUBATION) was “inactive; negative”; the mutagenic call under setting [4] was “inactive; negative”; the mutagenic call (Test System: AMES SALMONELLA TYPHIMURIUM, Strain/Indicator: TA100, Metabolic Activation: RAT, LIVER, S-9, AROCLOR, Method: PREINCUBATION) is “inactive; negative”; the mutagenic call (Test System: AMES SALMONELLA TYPHIMURIUM, Strain/Indicator: TA102, Metabolic Activation: NONE, Method: PREINCUBATION) is “inactive; negative”; the mutagenic call (Test System: AMES SALMONELLA TYPHIMURIUM, Strain/Indicator: TA102, Metabolic Activation: RAT, LIVER, S-9, AROCLOR, Method: PREINCUBATION) is “inactive; negative”.
With `CNC(C)Cc1ccc2c(c1)OCO2` (configuration not stated), the mutagenic call (End Point: In vitro micronucleus, Test System: Chinese hamster lung fibroblast, Metabolic Activation: Hamster, Liver, S-9, Phenobarbital sodium and 5,6-benzoflavone) was “inactive; negative. n-nitroso-3,4-methylenedioxymethamphetamine (500-900 ug/ml), expected”; the mutagenic call (End Point: In vitro micronucleus, Test System: Chinese hamster lung fibroblast, Metabolic Activation: None) is “inactive; negative. n-nitroso-3,4-methylenedioxymethamphetamine (200-600 ug/ml), expected; also recorded: inactive; negative. n-nitroso-3,4-methylenedioxymethamphetamine (50-300 ug/ml), expected t”; the mutagenic call (End Point: In vitro micronucleus, Test System: Chinese hamster lung fibroblast, Metabolic Activation: Rat, Liver, S-9, Phenobarbital sodium and 5,6-benzoflavone) was “inactive; negative. n-nitroso-3,4-methylenedioxymethamphetamine (500-900 ug/ml), expected”.
For the compound `N#CC(C#N)=C(C#N)C#N`, the mutagenic call is “inactive; negative” (Test System: AMES SALMONELLA TYPHIMURIUM, Strain/Indicator: TA98, Metabolic Activation: HAMSTER, LIVER, S-9, AROCLOR 1254 (10%), Method: STANDARD PLATE); “inactive; negative” (Test System: AMES SALMONELLA TYPHIMURIUM, Strain/Indicator: TA98, Metabolic Activation: NONE, Method: STANDARD PLATE); “inactive; negative” (Test System: AMES SALMONELLA TYPHIMURIUM, Strain/Indicator: TA98, Metabolic Activation: RAT, LIVER, S-9, AROCLOR 1254 (10%), Method: STANDARD PLATE); “inactive; negative” (Test System: AMES SALMONELLA TYPHIMURIUM, Strain/Indicator: TA100, Metabolic Activation: HAMSTER, LIVER, S-9, AROCLOR 1254 (10%), Method: STANDARD PLATE); “inactive; negative” under setting [1]; “inactive; negative” (Test System: AMES SALMONELLA TYPHIMURIUM, Strain/Indicator: TA100, Metabolic Activation: RAT, LIVER, S-9, AROCLOR 1254 (10%), Method: STANDARD PLATE). The mutagenic call is “inactive; negative” (Test System: AMES SALMONELLA TYPHIMURIUM, Strain/Indicator: TA1535, Metabolic Activation: HAMSTER, LIVER, S-9, AROCLOR 1254 (10%), Method: STANDARD PLATE); “inactive; negative” under setting [2]; “inactive; negative” (Test System: AMES SALMONELLA TYPHIMURIUM, Strain/Indicator: TA1535, Metabolic Activation: RAT, LIVER, S-9, AROCLOR 1254 (10%), Method: STANDARD PLATE); “inactive; negative” (Test System: AMES SALMONELLA TYPHIMURIUM, Strain/Indicator: TA1537, Metabolic Activation: HAMSTER, LIVER, S-9, AROCLOR 1254 (10%), Method: STANDARD PLATE); “inactive; negative” (Test System: AMES SALMONELLA TYPHIMURIUM, Strain/Indicator: TA1537, Metabolic Activation: NONE, Method: STANDARD PLATE); “inactive; negative” (Test System: AMES SALMONELLA TYPHIMURIUM, Strain/Indicator: TA1537, Metabolic Activation: RAT, LIVER, S-9, AROCLOR 1254 (10%), Method: STANDARD PLATE). For the same compound, the mutagenic call is “inactive; negative” (Test System: AMES SALMONELLA TYPHIMURIUM, Strain/Indicator: TA1538, Metabolic Activation: HAMSTER, LIVER, S-9, AROCLOR 1254 (10%), Method: STANDARD PLATE); “inactive; negative” (Test System: AMES SALMONELLA TYPHIMURIUM, Strain/Indicator: TA1538, Metabolic Activation: NONE, Method: STANDARD PLATE); “inactive; negative” (Test System: AMES SALMONELLA TYPHIMURIUM, Strain/Indicator: TA1538, Metabolic Activation: RAT, LIVER, S-9, AROCLOR 1254 (10%), Method: STANDARD PLATE); “inactive; negative. reevaluation of results: inconclusive” (Test System: MOUSE LYMPHOMA, Strain/Indicator: L5178Y (TK+/TK-), Metabolic Activation: NONE, Method: SUSPENSION/PLATE); “inactive; negative. reevaluation of results: inconclusive” (Test System: MOUSE LYMPHOMA, Strain/Indicator: L5178Y (TK+/TK-), Metabolic Activation: RAT, LIVER, S-9, AROCLOR 1254, Method: SUSPENSION/PLATE).
With `CCC(C)Br` (configuration not stated), the mutagenic call by setting is: (Test System: AMES SALMONELLA TYPHIMURIUM, Strain/Indicator: TA100, Metabolic Activation: NONE, Method: DESICCATOR) “active; positive”; (Test System: AMES SALMONELLA TYPHIMURIUM, Strain/Indicator: TA100, Metabolic Activation: RAT, LIVER, S-9, AROCLOR 1254, Method: DESICCATOR) “active; positive”; (Test System: AMES SALMONELLA TYPHIMURIUM, Strain/Indicator: TA1535, Metabolic Activation: NONE, Method: DESICCATOR) “active; positive”; (Test System: AMES SALMONELLA TYPHIMURIUM, Strain/Indicator: TA1535, Metabolic Activation: RAT, LIVER, S-9, AROCLOR 1254, Method: DESICCATOR) “active; positive”.

These data come from PubChem BioAssay AID1259407 (Chemical Carcinogenesis Research Information System (CCRIS), 2018).
